# Measurements from ChEMBL document CHEMBL5506055, “Hit-to-Lead Optimization of the Natural Product Oridonin as Novel NLRP3 Inflammasome Inhibitors with Potent Anti-Inflammation Activity” (J Med Chem, 2024).
# Active and inactive are the calls of the source. The rule behind the calls is not given here.
# Tests used:
# [1] = target: NACHT, LRR and PYD domains-containing protein 3 (Mus musculus) (UniProt Q8R4B8); test: Inhibition of NLRP3 inflammasome activation in LPS-induced C57BL/6 mouse BMDMs assessed as reduction in NLRP3 mRNA level at 50 to 200 nM preincubated for 24 hrs followed by LPS addition for 4 hrs by qRT-PCR analysis; format: cell-based; conditions: BMDM, dose 50-200 nM, time 28.0 hrs
# Sequence of NACHT, LRR and PYD domains-containing protein 3 (Mus musculus) (Q8R4B8 whole entry, the tested form may be a part): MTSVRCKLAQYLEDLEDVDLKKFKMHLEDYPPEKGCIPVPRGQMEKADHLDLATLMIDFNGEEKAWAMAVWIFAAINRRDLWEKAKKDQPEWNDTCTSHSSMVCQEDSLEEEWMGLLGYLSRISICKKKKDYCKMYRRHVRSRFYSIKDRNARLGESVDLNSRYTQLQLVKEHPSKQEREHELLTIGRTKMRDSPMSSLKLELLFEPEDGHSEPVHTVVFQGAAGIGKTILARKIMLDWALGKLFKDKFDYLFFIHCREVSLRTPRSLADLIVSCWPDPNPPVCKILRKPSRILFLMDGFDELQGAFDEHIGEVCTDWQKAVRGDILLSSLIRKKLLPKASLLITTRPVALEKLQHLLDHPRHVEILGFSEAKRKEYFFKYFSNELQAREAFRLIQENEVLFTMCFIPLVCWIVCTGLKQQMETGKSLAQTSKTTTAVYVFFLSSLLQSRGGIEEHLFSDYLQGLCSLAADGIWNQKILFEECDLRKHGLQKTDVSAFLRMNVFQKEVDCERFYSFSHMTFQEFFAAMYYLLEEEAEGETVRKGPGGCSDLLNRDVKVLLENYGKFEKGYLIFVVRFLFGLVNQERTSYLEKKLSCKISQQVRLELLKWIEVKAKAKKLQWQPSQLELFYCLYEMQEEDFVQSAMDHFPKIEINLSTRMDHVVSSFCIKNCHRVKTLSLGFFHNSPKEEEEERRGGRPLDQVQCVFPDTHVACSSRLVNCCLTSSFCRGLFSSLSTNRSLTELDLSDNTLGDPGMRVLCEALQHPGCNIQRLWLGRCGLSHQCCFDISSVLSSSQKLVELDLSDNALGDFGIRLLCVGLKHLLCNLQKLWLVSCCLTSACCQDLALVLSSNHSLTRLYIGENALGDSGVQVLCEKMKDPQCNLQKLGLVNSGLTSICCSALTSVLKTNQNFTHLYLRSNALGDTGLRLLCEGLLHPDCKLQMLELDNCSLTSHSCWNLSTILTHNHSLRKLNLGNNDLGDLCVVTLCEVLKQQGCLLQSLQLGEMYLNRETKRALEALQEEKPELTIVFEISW
# [2] = Stability in rat plasma assessed as half life measured upto 8 hrs; format: ADME, cell-free
smiles,measurement,setting,value
C=C1C(=O)[C@]23[C@H](O)[C@H]1CC[C@H]2[C@]12C=CCC(C)(C)[C@H]1[C@H](O)[C@@]3(OCCC(=O)O)OC2,inhibition,[1],inactive
same,half-life,[2],6.21 h
